Measurements as given in US10668061B2, “Mouse with D4R iRNA in the intercalating cell mass of the amygdala” (POSTECH ACADEMY-INDUSTRY FOUNDATION, priority 2016, dated 2020).

Experiments:
[1] = tested on: mice that underwent weak fear conditioning; experiment: Corticosterone-induced PTSD-like memory impairment after weak fear conditioning (freezing); format: in vivo; conditions: CORT 5 mg/kg i.p.
Method: Fear conditioning trainings were conducted in context A within sound-attenuating conditions (Panlab, Spain). Tone CS (conditioned stimulus) was delivered with a speaker while electric foot shock US (unconditioned stimulus) was applied through a floor grid attached to a shock generator (Panlab). The chambers were also equipped with infrared webcams connected to a personal computer to store animal behavior. Mice were placed in the context A for 2 minutes of acclimation and were then presented with auditory tone (CS: 3 kHz, 80 dB for 30 sec) that were co-terminated with electric foot shocks (US: 0.4 or 0.8 mA for 0.5 sec). Total 8 CS-US pairs were presented in pseudorandom intertrial intervals (varied from 60 to 120 sec). 24 hours after fear conditioning, mice were placed in context B to assess the recall of fear memory by being re-exposed to CS, but without US for 2 minutes. […]
To assess contextual fear memory from cue conditioned animals, the mice were placed again in context A 2 hours after termination of the first recall test and then duration of freezing was measured for 2 minutes without presentation of the auditory cue. The mice were placed in context B 2 hours after termination of the first recall test and the freezing time during presentation of the auditory cue was measured for 2 minutes.

dorsal ITC neurons [2] = experiment: Disynaptic IPSP input-output curves in dorsal ITC of CORT-treated mice; format: cell-based; conditions: vehicle-treated significantly increased
Method: To induce PTSD-like memory impairment, corticosterone (CORT, 5 mg/kg) or vehicle (saline, 0.9% NaCl) was intraperitoneally (i.p.) injected immediately after fear conditioning as previously described. The cue-conditioning group underwent weak fear conditioning with the previously-described CS-US pairing paradigm in context A and was tested for fear recall toward the cue in context B at the next day.
To obtain mechanistic insights into the LTD impairment, we constructed the input-output curves of evoked disynaptic IPSPs. […] Thus, the LTD deficit in CORT-treated mice appears to result from the impaired augmentation of inhibitory inputs to the dorsal ITC neurons.

dorsal ITC neurons [3] = experiment: STDP-induced LTD in dorsal ITC in amygdala slices after weak fear conditioning; format: cell-based, mice; conditions: for induction of LTD after weak fear conditioning: wild-type mice, slices after weak fear conditioning, drug applied to slices
Method: Fear conditioning trainings were conducted in context A within sound-attenuating conditions (Panlab, Spain). Tone CS (conditioned stimulus) was delivered with a speaker while electric foot shock US (unconditioned stimulus) was applied through a floor grid attached to a shock generator (Panlab). The chambers were also equipped with infrared webcams connected to a personal computer to store animal behavior. Mice were placed in the context A for 2 minutes of acclimation and were then presented with auditory tone (CS: 3 kHz, 80 dB for 30 sec) that were co-terminated with electric foot shocks (US: 0.4 or 0.8 mA for 0.5 sec). Total 8 CS-US pairs were presented in pseudorandom intertrial intervals (varied from 60 to 120 sec). 24 hours after fear conditioning, mice were placed in context B to assess the recall of fear memory by being re-exposed to CS, but without US for 2 minutes.
(§1) To compare mPSCs without or after STDP, KCl-based and K-gluconate-based internal solutions were used for recording mIPSCs and mEPSCs, respectively. K-gluconate based solution was also used to record EPSCs and IPSCs evoked by interleaved stimulation. Series resistance (10-30 MΩ) was monitored throughout all experiments. mEPSCs were recorded at −70 mV holding potential in the presence of 1 μM tetrodotoxin (TTX) and 100 μM picrotoxin (Tocris, UK) while mIPSCs were measured at −70 mV in the presence of 1 μM TTX, 25 μM NBQX, and 50 μM 2-amino-5-phosphonovaleric acid (APV, Tocris). Miniature PSCs were analyzed with MiniAnalysis (Synaptosoft, Fort Lee, N.J.) or Clampfit 10.1 software (Molecular Devices). For PSC recordings with interleaved stimulation, the holding potential was briefly (˜40 ms) changed from −70 mV to +10 mV to reach the reversal potential of EPSC for isolation of putative IPSCs. For STDP experiments, stimulus intensity was adjusted to elicit EPSPs displaying 25%-30% of the maximum amplitudes. […]

dorsal ITC neurons [4] = tested on: dorsal ITC neurons
dorsal ITC neurons [5] = experiment: STDP-induced DA-dependent LTD (DA-LTD) in dorsal ITC neurons, amygdala slice whole-cell recordings; format: cell-based, mice; conditions: for effect on DA-LTD: STDP protocol in presence of DA, antagonists in optimal concentrations selective for each receptor, naive mice; for induction of LTD at the dorsal ITC by receptor agonist: STDP protocol, agonist in place of DA
ITC neurons = experiment: Paired recording of unitary IPSCs (uIPSCs) between synaptically coupled ITC neurons
D4R at the dorsal ITC = molecular target: T1, D4R at the dorsal ITC (Mus musculus, UniProt P51436); experiment: Weak fear conditioning after bilateral drug infusion into the dorsal ITC (freezing); format: in vivo, mice; conditions: 500 nM, 0.5 μl bilaterally into dorsal ITC 20 minutes before fear conditioning; vs vehicle
T1 construct: endogenous in cells; host or cells: neurons of the mouse brain in vivo (dorsal ITC of the amygdala); mice from Jackson Laboratory
T1 sequence (P51436 1-387): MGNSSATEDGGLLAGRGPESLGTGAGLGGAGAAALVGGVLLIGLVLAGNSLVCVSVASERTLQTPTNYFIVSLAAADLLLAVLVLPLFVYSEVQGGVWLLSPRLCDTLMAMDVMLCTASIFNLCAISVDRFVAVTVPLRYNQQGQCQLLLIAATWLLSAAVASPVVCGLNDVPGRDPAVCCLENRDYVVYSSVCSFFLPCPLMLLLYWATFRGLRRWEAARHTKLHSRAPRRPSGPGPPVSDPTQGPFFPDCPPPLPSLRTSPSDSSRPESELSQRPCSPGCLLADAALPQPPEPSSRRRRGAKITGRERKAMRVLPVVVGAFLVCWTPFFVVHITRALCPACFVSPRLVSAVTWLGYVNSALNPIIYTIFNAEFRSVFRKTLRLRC
Method: Guide cannulae were implanted bilaterally (26 gauge, Plastics One, Roanoke, Va.) aimed into the dorsal ITC areas in the coordinates, AP−1.4 mm, ML±3.2 mm, DV−4.2 mm from the bregma, and were fixed in the skull with dental cement. The cannulae remained capped with internal dummy cannulae (33 gauges, Plastics One) after surgery. Animals were individually housed and allowed to recover at least for 1 week after surgery. The mice bilaterally received 0.5 μl of either L-745870 or vehicle through the injection cannula (33 gauge, Plastics One) connected to a 10-μl Hamilton syringe for 5 minutes at a rate of 0.1 μl/min using microinfusion pump (Harvard Apparatus, Holliston, Mass.) 20 minutes before fear conditioning. L-745870 was dissolved to 500 nM in 0.9% saline just before the infusion. Mice were kept with injector cannulae for additional 5 minutes after the end of infusion and then were subjected to fear conditioning. […] The subject mice were transcardially perfused right after the last behavioral tests and analyzed for the injection loci. […]
If DA-LTD at the dorsal ITC is a synaptic mechanism that regulates neural circuits conveying fear memory, manipulation of D4R activity or synaptic plasticity at the dorsal ITC should affect fear memory. […] We injected either vehicle or L-745870 bilaterally into the dorsal ITC areas and then assessed acquisition and expression of fear memory (FIG. 5A).

dorsal ITC neurons [6] = experiment: STDP in dorsal ITC neurons of naive slices with or without GABAA receptor blockade; format: cell-based, mice; conditions: +4- and +6-ms interval delays; not in absence of picrotoxin
Method: as §1, with “amplitudes. After obtaining stable baseline recording, 80 presynaptic stimuli were delivered at 2 Hz via metal stimulating electrode placed in LA while paired with action potentials induced by injection of depolarizing current to postsynaptic neurons. Quantal contents were estimated by obtaining the inverse square of the coefficient of variation (1/CV^2). […].” for “amplitudes.”

Q: `C[C@]12C[C@H](O)[C@H]3[C@@H](CCC4=CC(=O)CC[C@@]43C)[C@@H]1CC[C@@H]2C(=O)CO` [CORT, corticosterone] was tested. Which “freezing to the context after cue conditioning only” value [1] did it give?
A: Its value is “increased freezing levels”.

Q: What about the “freezing to the conditioned cue 24 hr after weak fear conditioning” value ([1]; vs vehicle-injected, cue or context pairing) of the same molecule?
A: Its value is “higher freezing levels”.

Q: What about the “disynaptic IPSPs after weak fear conditioning” value (dorsal ITC neurons [2]) of the same molecule?
A: The value was “not altered”.

Q: What about the “induction of LTD in dorsal ITC of CORT-treated mice” value (dorsal ITC neurons [3]; CORT 5 mg/kg i.p. after conditioning, regardless of fear conditioning) of the same molecule?
A: The value was “LTD could not be triggered”.

Q: Which “changes in resting membrane potentials (RMPs) and excitability” value (dorsal ITC neurons [4]; DA 30 mM, before and after application) does the source give for `NCCc1ccc(O)c(O)c1` [DA, Dopamine] here?
A: The value was “negligible changes”.

Q: What about the “synaptic transmission on bath application alone” value (dorsal ITC neurons [4]; bath application of DA alone, no STDP) of the same molecule?
A: The value was “did not alter synaptic transmission”.

Q: What about the “induction of LTD by the STDP protocol in the presence of DA” value (dorsal ITC neurons [5]; DA 30 mM) of the same molecule?
A: The value was “LTD was readily induced”.

Q: `Nc1nc2c(ncn2[C@@H]2O[C@H](COP(=O)(O)OP(O)(O)=S)[C@@H](O)[C@H]2O)c(=O)[nH]1` [GDPβS] was tested. Which “LTD-induced increment of uIPSC amplitude, infused into postsynaptic ITC neurons” value (ITC neurons; GDPβS 0.5 mM in internal solution, postsynaptic neuron) did it give?
A: The value was “not”.

Q: And the “LTD-induced increment of uIPSC amplitude, infused into presynaptic ITC neurons” value (ITC neurons; GDPβS 0.5 mM in internal solution, presynaptic neuron)?
A: Its value is “blocked”.

Q: `COc1ccccc1N1CCN(CCCCNC(=O)c2ccc(-c3ccc(C(C)=O)cc3)cc2)CC1` [GR-103691] was tested. Which “effect on DA-LTD” value (dorsal ITC neurons [5]) did it give?
A: Its value is “did not affect DA-LTD”.

Q: How did the “effect on DA-LTD” value (dorsal ITC neurons [5]) turn out when `OC1(c2ccc(Cl)cc2)CCN(Cc2c[nH]c3ccccc23)CC1` [L-741626] was run?
A: Its value is “did not affect DA-LTD”.

Q: `Clc1ccc(N2CCN(Cc3c[nH]c4ncccc34)CC2)cc1` [L-745870] was tested. Which “freezing at 24 hr after weak fear conditioning” value (D4R at the dorsal ITC) did it give?
A: The value was “significantly higher levels of freezing”.

Q: And the “freezing levels during acquisition” value (D4R at the dorsal ITC)?
A: Its value is “comparable freezing levels”.

Q: What about the “effect on DA-LTD” value (dorsal ITC neurons [5]) of the same molecule?
A: The value was “abolished DA-LTD”.

Q: And the “induction of LTD after weak fear conditioning” value (dorsal ITC neurons [3])?
A: Its value is “interfered with the induction of LTD”.

Q: How did the “induction of LTD at the dorsal ITC by receptor agonist” value (dorsal ITC neurons [5]) turn out when `CCCN1CCO[C@@H]2c3cc(O)ccc3OC[C@H]21` [PD-128907] was run?
A: The value was “did not”.

Q: What does the source list for `Cc1cccc(C(=O)NCN2CCN(c3ccccc3C#N)CC2)c1` [PD-168077, N-([4-(2-cyanophenyl)piperazine-1-yl]methyl)-3-methylbenzamide]?
A: induction of LTD at the dorsal ITC by receptor agonist (dorsal ITC neurons [5]): allowed for the induction of LTD; amplitude of uIPSCs when LTD was induced (ITC neurons; current injection to postsynaptic ITC neurons while stimulating LA in presence of PD-168077): markedly increased

Q: With `CC#C[C@]1(O)CC[C@H]2[C@@H]3CCC4=CC(=O)CCC4=C3[C@@H](c3ccc(N(C)C)cc3)C[C@@]21C` [RU38486] as the molecule, how does the “effect on DA-LTD” value (dorsal ITC neurons [5]) read?
A: The value was “blocked”.

Q: What about the “induction of LTD after weak fear conditioning” value (dorsal ITC neurons [3]) of the same molecule?
A: Its value is “blocked”.

Q: With `Oc1cc2c(cc1O)C(c1ccccc1)CNCC2` (stereo not shown) [SKF-38393] as the molecule, how does the “induction of LTD at the dorsal ITC by receptor agonist” value (dorsal ITC neurons [5]) read?
A: The value was “did not”.

Q: With picrotoxin as the molecule, how does the “synaptic plasticity by STDP in presence of GABAA receptor antagonist” value (dorsal ITC neurons [6]) read?
A: Its value is “LTP”.
